This is an account of results in patent US5407956A, “2-amino-1,2,3,4-tetrahydronaphthalene derivatives active on the cardiovascular system, processes for their preparation and pharmaceutical compositions containing them” (Zambon Group S.p.A., priority 1992, dated 1995).

Molecules are shown by their SMILES. “Also recorded” adds a separate entry of the source. Where a name gives a salt, the structure may show the parent alone.

Broadly, the Ki is a dissociation constant, usually derived from enzyme kinetics or from competition with a known ligand. A word on the EC50: it is the midpoint of the concentration-response curve.

Series [1] has as its target T1, D1 receptor (Rattus norvegicus, UniProt P18901). In words: Receptor binding, D1 receptor, [3H]-SCH23390, rat striatal membranes (part A). On the set-up: membranes from striatal tissues were prepared; from tissue; host or cells: rat striatum (membranes); species or system rat (Sprague-Dawley). The note with it: for Ki: [3H]-SCH23390, rat striatal membranes, Table 1, read-out: Affinity Ki for D1 receptor.

The next series deals with SHR rats. Nature of the series: In vivo antihypertensive activity, systolic blood pressure by tail cuff in conscious SHR rats. On the set-up: species or system rat (SHR). The protocol: Male SHR rats, 3-4 months old, fasted 16 hours before the experiment were used. Systolic blood pressure (SBP) and heart rate (HR) were recorded by tail cuff method in conscious animals by means of a BP Recorder (W+W Basile, Italy). Before every pressure determination animals were maintained at 37° C. for 10 minutes.
SBP and HR values were recorded before and at various times up to seven hours after treatment with the tested compounds.
The compounds were administered orally by gavage, in a volume of 10 ml/kg, at doses between 10 and 160 mg/kg. For the administration, the compounds were suspended in carboxymethylcellulose (CMC) 0.5% in water and additioned with Tween 80 (0.3 ml/10 ml of CMC).
The obtained results, expressed as ED30mmHg (mg/kg p.o.) that is the dose causing a decrease of 30 mmHg from the basal value of SBP (about 15% decrease) are the following: […]

Series [2] deals with T2, D2 receptor (Rattus norvegicus, UniProt P61169). In words: Receptor binding, D2 receptor, [3H]-domperidone, rat striatal membranes (part A). To be noted: for Ki: [3H]-domperidone, rat striatal membranes, Table 1, read-out: Affinity Ki for D2 receptor. Also on record: membranes from striatal tissues were prepared; from tissue; host or cells: rat striatum (membranes); species or system rat (Sprague-Dawley). How it is done:
(§1) The tissues were homogenized in 50 mM Tris/HCl buffer, pH 7.4 (1:100 weight/volume).
(§2) The homogenate was centrifuged and the pellet was resuspended, centrifuged again and resuspended in 50 mM Tris/HCl buffer pH 7.4 containing 120 mM NaCl, 5mM KCl, 2mM CaCl2 and 1 mM MgCl2.
For D2 -receptor binding studies [^3 H]-domperidone (0.3 nM) was incubated in a volume of 1000 μl containing buffer and a membrane preparation as above described. In addition bovine serum albumine (BSA) (0.01%) was added. The mixture was incubated at 37° C. for 30 minutes for each concentration of the tested compounds.

Series [3] deals with T1, D1 receptor. In words: biochemical. To be noted: [3H]-SCH23390; rat striatal membranes; Table 2; read-out: Binding D1 rat striatum Ki. How it is done:
as §1, §2

Series [4] has as its target T2, D2 receptor. In words: biochemical. To be noted: [3H]-spiperone; rat striatal membranes; Table 2; read-out: Binding D2 rat striatum Ki. How it is done:
as §1, §2
The standard incubation conditions (volume 1 ml) for the assay in which [^3 H]-SCH23390 was used were as follows: 50 mM Tris/HCl buffer (pH 7.4), 0.2 nM [^3 H]-SCH23390, a membrane preparation (3 mg/ml corresponding to 130-150 μg proteins/ml), incubation temperature 37° C. and incubation time 15 minutes. The standard incubation conditions (volume 2 ml) for the assay in which [^3 H]-spiperone was used were as follows: 50 mM Tris/HCl buffer (pH 7.4), 0.2 nM [^3 H]-spiperone, a membrane preparation (3 mg/ml corresponding to 130-150 μg proteins/ml), incubation temperature 37° C. and incubation time 15 minutes.

For another series, the target named is T3, DA2 (Oryctolagus cuniculus, UniProt G1T1Q0).
T3 construct: Transversal sections (2-3 mm) of rabbit ear artery were suspended in isolated organ baths; from tissue; host or cells: rabbit ear artery (transversal sections)
T3 sequence (G1T1Q0 1-443): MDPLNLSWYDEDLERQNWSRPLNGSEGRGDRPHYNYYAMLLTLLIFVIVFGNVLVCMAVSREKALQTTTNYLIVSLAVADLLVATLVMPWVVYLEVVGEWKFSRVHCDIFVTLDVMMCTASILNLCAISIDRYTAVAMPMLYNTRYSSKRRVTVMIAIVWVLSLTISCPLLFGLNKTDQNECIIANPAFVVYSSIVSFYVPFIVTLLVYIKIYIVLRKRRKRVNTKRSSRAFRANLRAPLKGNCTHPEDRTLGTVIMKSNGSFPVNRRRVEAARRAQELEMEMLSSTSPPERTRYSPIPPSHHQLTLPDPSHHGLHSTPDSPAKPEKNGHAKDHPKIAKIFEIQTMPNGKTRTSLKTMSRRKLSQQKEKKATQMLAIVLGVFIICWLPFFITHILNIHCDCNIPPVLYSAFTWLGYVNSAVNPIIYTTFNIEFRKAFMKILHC
In words: DA2-agonist activity on electrically stimulated rabbit ear artery. The note with it: inhibition of contraction induced by electric stimulation; for EC50: read-out: DA2 rabbit ear artery pD2 (-log EC50) (converted).

For series [5] the following is noted: in words; cited from earlier work.
The next series has as its system dopaminergic receptors. To be noted: in words; cited from earlier work.

T1 sequence (P18901 whole entry): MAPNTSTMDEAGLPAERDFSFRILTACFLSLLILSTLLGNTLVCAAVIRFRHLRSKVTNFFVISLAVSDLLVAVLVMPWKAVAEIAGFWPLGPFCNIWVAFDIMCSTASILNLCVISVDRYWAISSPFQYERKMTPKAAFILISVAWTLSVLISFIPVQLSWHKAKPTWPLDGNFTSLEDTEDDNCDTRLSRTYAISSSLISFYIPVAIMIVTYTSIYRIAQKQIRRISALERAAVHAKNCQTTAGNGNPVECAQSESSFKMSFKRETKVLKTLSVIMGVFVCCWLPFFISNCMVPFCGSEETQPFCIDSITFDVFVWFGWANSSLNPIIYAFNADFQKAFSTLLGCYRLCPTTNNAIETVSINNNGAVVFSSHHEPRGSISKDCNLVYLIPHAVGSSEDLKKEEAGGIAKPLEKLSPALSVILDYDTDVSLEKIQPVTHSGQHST
T2 sequence (P61169 whole entry): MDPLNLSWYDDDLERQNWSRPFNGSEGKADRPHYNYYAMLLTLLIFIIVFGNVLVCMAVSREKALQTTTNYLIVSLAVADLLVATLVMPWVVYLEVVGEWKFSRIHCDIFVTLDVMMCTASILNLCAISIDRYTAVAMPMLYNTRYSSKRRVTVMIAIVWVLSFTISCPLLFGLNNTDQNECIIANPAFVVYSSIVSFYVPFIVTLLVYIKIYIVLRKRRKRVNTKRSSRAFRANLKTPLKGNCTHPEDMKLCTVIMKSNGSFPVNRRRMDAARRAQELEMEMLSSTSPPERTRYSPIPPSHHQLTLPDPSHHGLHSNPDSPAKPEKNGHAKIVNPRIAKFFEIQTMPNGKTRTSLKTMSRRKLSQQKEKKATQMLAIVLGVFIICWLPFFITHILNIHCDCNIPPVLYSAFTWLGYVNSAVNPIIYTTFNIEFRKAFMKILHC
Experimental for DA2: DA2 -agonist activity was evaluated as follows. Transversal sections (2-3 mm) of rabbit ear artery were suspended in isolated organ baths containing Krebs-Henseleit solution added with corticosterone (30 μM), desipramine (0.1 μM) and EDTA (10 μM).
The preparation, subjected to a traction of 1 g and to an electric stimulation with field pulses every 5 minutes (10 Hz, 1 msec., 30-60 V, 500 msec. duration) were left stabilize for about 2 hours.
Each preparation was submitted to three increasing concentrations allowing the recovery of the basal conditions before the subsequent administration.

For `CCCN(CCCCCCNCCOc1ccccc1OC)[C@H]1CCc2c(ccc(O)c2O)C1` [Compound 1, S-(-)-N-propyl-N-[6-(2-(2-methoxyphenoxy)ethylamino]hexyl]-5,6-dihydroxy-1,2,3,4-tetrahydro-2-naphthylamine dihydrchloride], the Ki at D1 receptor [1] was determined as 195 nM; at D2 receptor [2] it was 4 nM; on D1 receptor [3], 90 nM; at D2 receptor [4] it was 0.5 nM. The “Potency on D1 receptors, times more potent than dopamine and dopexamine” value on D1 receptor [1] (vs dopamine and dopexamine) is “about 10 times”. Moreover, in the series on SHR rats (Rattus norvegicus, oral gavage, about 15% decrease of SBP, read-out: ED30mmHg, dose causing a decrease of 30 mmHg from the basal value of SBP), the ED (30 mmHg) worked out at 22.9 mg/kg. For the same compound, the “Duration of the antihypertensive effect” value in the series on SHR rats (oral) is given as “about 4 hours”. For the same compound, the “Potency on D2 receptors, times more potent than dopamine and dopexamine” value at D2 receptor [2] (vs dopamine and dopexamine) was “about 100 times”. On DA2, the EC50 was 1.07 nM.

Regarding `CCCN(CCCCCCNCCOc1ccccc1OC)[C@@H]1CCc2cc(O)c(O)cc2C1` [Compound 2, (R)-N-propyl-N-[6-[2-(2-methoxyphenoxy)ethylamino]hexyl]-6,7-dihydroxyl-1,2,3,4-tetrahydro-2-naphthylamino dihydrochloride], the Ki on D1 receptor [3] amounted to 315 nM; on D2 receptor [4] it was 8.4 nM. The EC50 at DA2 was 4.37 nM.

Consider `CCCCN(CCCCCCNCCOc1ccccc1OC)[C@H]1CCc2c(ccc(O)c2O)C1` [Compound 3, (S)-N-butyl-N-[6-[2-(2-methoxyphenoxy)ethylamino]hexyl]-5,6-dihydroxy-1,2,3,4-tetrahydro-2-naphthylamine dihydrochloride], for which the Ki was determined as 560 nM at D1 receptor [3] and 86 nM on D2 receptor [4]. Moreover, the concentration giving a half-maximal response (EC50) on DA2 is 29.5 nM.

Take `CCCCN(CCCCCCNCCOc1ccccc1Cl)[C@H]1CCc2c(ccc(O)c2O)C1` [Compound 4, (S)-N-butyl-N-[6-[2-2-(chlorophenoxy)ethylamino]hexyl]-5,6-dihydroxy-1,2,3,4-tetrahydro-2-naphthylamine dihydrochloride]: the Ki stood at 700 nM at D1 receptor [3] and 80 nM on D2 receptor [4]. For the same compound, the 50% effective concentration (EC50) on DA2 was 513 nM.

For `CCCN(CCCCCCNCCOc1ccc(C)cc1Cl)[C@H]1CCc2c(ccc(O)c2O)C1` [Compound 5, (S)-N-propyl-N-[6-[2-[(2-chloro-4-methyl)phenoxy]ethylamino]-hexyl]-5,6-dihydroxy-1,2,3,4-tetrahydro-2-naphthylamine dihydrochloride], the Ki is 120 nM at D1 receptor [3] and 5 nM on D2 receptor [4]. In addition, the EC50 at DA2 is 6.92 nM.

Turning to `CCCN(CCCNCCOc1ccccc1OC)[C@H]1CCc2c(ccc(O)c2O)C1` [Compound 7, (S)-N-propyl-N-[3-[2-[(2-methoxyphenoxy)ethylamino]propyl]-5,6-dihydroxy-1,2,3,4-tetrahydro-2-naphthylaminedihydrochloride], the inhibition constant (Ki) was found to be 1100 nM at D1 receptor [3] and 1.1 nM at D2 receptor [4]. For the same compound, the EC50 at DA2 is 2.14 nM.

As for `CCCN(CCCNCCOc1ccccc1Cl)[C@@H]1CCc2cc(O)c(O)cc2C1` [Compound 8, (R)-N-propyl-N-[3-[2-[(2-chlorophenoxy)ethylamino]propyl]-6,7-dihydroxy-1,2,3,4-tetrahydro-2-naphthylaminedihydrochloride], the values for the inhibitory constant (Ki) at D1 receptor [3] and on D2 receptor [4] were 2650 nM and 16 nM, respectively. Moreover, on DA2, the EC50 was 44.7 nM.

On to `CCCCN(CCCNCCOc1ccc(C)cc1OC)[C@H]1CCc2c(ccc(O)c2O)C1` [Compound 9, (S)-N-butyl-N-[3-[2-[(2-methoxy-4-methyl)phenoxy]ethylamino]propyl]-5,6-dihydroxyl-1,2,3,4-teyrahydro-2-naphthylamine dihydrochloride], for which the Ki at D1 receptor [3] amounted to 22000 nM; at D2 receptor [4], 190 nM. The EC50 on DA2 is 1050 nM.

Regarding `CCCN(CCCCCCN(C)CCOc1ccccc1OC)[C@H]1CCc2c(ccc(O)c2O)C1` [Compound 10, (S)-N-[2-(5,6-dihydroxy-1,2,3,4-tetrahydro)naphthyl]-N-propyl-N'-methyl-N'-[2-(2-methoxyphenoxy)ethyl]-1,6-hexanediamine dihychloride], the Ki stood at 410 nM at D1 receptor [3] and 5.5 nM on D2 receptor [4]. Besides, the EC50 at DA2 is 3.39 nM.

With `CCCCN(CCCCCCN(C)CCOc1ccccc1OC)[C@@H]1CCc2cc(O)c(O)cc2C1` [Compound 11, (R)-N-butyl-N-[2-(6,7-dihydroxy-1,2,3,4-tetrahydro)naphthyl]-N'-methyl-N'-[2-(2-methoxyphenoxy)ethyl]-1,6-hexanediamine dihydrochloride], the figures for the Ki at D1 receptor [3] and at D2 receptor [4] were 11700 nM and 630 nM, respectively. Further, on DA2, the EC50 is 1350 nM.

Regarding `CCCN(CCCCCCN(C)CCOc1ccc(C)cc1Cl)[C@H]1CCc2c(ccc(O)c2O)C1` [Compound 12, (S)-N-[2-(5,6-dihydroxy-1,2,3,4-tetrahydro)naphthyl]-N-propyl-N'-methyl-N'-[2-[(2-chloro-4-methyl]phenoxyl]ethyl]-1,6-hexanediamine dihydrochloride], the Ki worked out at 180 nM on D1 receptor [3] and 8.3 nM on D2 receptor [4]. Moreover, the EC50 on DA2 is 457 nM.

For `CCCN(CCCN(C)CCOc1ccccc1OC)[C@H]1CCc2c(ccc(O)c2O)C1` [Compound 13, (S)-N-propyl-N-[2-(5,6-dihydroxy-1,2,3,4-tetrahydro)naphthyl]-N'-methyl-N'-[2-(2-methoxyphenoxy)ethyl]-1,3-propanediamine dihydrochloride], the figures for the Ki on D1 receptor [3] and on D2 receptor [4] were 3600 nM and 9.8 nM, respectively. The EC50 at DA2 was 4.07 nM.

Regarding `CCCCN(CCCN(C)CCOc1ccc(C)cc1Cl)[C@@H]1CCc2cc(O)c(O)cc2C1` [Compound 14, (R)-N-butyl-N-[2-(6.,7-dihydroxy-l,2,3,4-tetrahydro)naphthyl]-N'-methyl-N'-[2-[(2-chloro-4-methyl)phenoxy]ethyl]-1.3-propanediamine dihydrochloride], the inhibition constant Ki at D1 receptor [3] was 2800 nM; on D2 receptor [4] it was 260 nM. Moreover, the half-maximal effective concentration (EC50) at DA2 was 6030 nM.

For `NCCc1ccc(O)c(O)c1` [Dopamine, dopamine], in series [5], the “Oral absorption (literature)” value was “lack of absorption by opal route; also recorded: not absorbed when administered by oral route”. The “DA2 rabbit ear artery pD2 (-log EC50)” value at DA2 stood at 7.40.

Consider `Oc1ccc(CCNCCCCCCNCCc2ccccc2)cc1O` [Dopexamine, dopexamine, reference compound], for which the Ki was determined as 2230 nM on D1 receptor [1], 145 nM at D2 receptor [2], 3200 nM on D1 receptor [3] and 1700 nM on D2 receptor [4]. Moreover, the “Agonist activity on dopaminergic receptors relative to dopamine” value in the series on dopaminergic receptors is “less active than dopamine”. Further, in series [5], the “Oral absorption (literature)” value is “not absorbed when administered by oral route”. Besides, the EC50 at DA2 is 447 nM.
